Experimental findings from US11339203B2, “Antitumor peptide and use thereof” (TOAGOSEI CO., LTD., priority 2018, dated 2022) are described below.

What all share (type): cell-based
Details in all cases: 48 h

For data set [1], the system named is human prostate cancer cell line (PC-3). The procedure: CAKI2 cells were cultured and adjusted to cell count of about 5×10^3 cells per single well of 96-well plate. The amount of medium at this time was made to be 100 μL per well. Next, the 96-well plate was arranged in a CO2 incubator and incubated for about 1 day (21 hours to 24 hours) under conditions of 37° C. and 5% CO2. […] Cell viability (%) was determined in the manner described below. […] Following completion of incubation, cell viability (%) was evaluated using a colorimetric method consisting of recovering the cell culture liquid containing the above-mentioned reagent together with measuring absorbance at wavelength of 450 nm based on reduction of tetrazolium salt (value corrected for absorbance at a wavelength of 650 nm: A450 to A650). More specifically, the cell viability (%) of each test cell line was calculated from the measured absorbance as a relative value based on cell viability of 100% for the measured value (measured absorbance) of the comparison test group that underwent incubation for 48 hours as described above in only medium not containing peptide. Antitumor activity was evaluated for Sample 2 in above-mentioned Test Example 1 targeted at multiple types of human-derived cultured tumor cells. […]

In data set [2] the test system is human alveolar epithelial cell carcinoma cell line (A549). Here is the method: (§1) CAKI2 cells were cultured and adjusted to cell count of about 5×10^3 cells per single well of 96-well plate. The amount of medium at this time was made to be 100 μL per well. Next, the 96-well plate was arranged in a CO2 incubator and incubated for about 1 day (21 hours to 24 hours) under conditions of 37° C. and 5% CO2. Subsequently, peptide-containing test media were respectively prepared for each concentration so that the concentration of each sample peptide targeted for evaluation was 12.5 μM and 25 μM followed by supplying to the wells in which the cells targeted for evaluation were cultured (namely, the wells following the above-mentioned incubation) so that the amount of media was 90 μL per well. The 96-well plate was then returned to CO2 incubator followed by incubating for 48 hours under conditions of 37° C. and 5% CO2. The number of wells (n) at each concentration in each peptide addition test group was set to 3. Thus, the values of the results indicated in the following table are the average values of the results respectively obtained for 3 test wells. Cell viability (%) was determined in the manner described below. Following completion of incubation for 48 hours as described above, the medium in each well was replaced with 100 μL of fresh medium not containing peptide followed by further adding a reagent for measuring cell proliferation in the form of “Cell Counting Kit-8” (Dojindo Laboratories) containing “water-soluble tetrazolium salt (WST-8)” as a coloring reagent at 10 μL per well. Subsequently, the 96-well plate was again returned to CO2 incubator and incubated for 1.5 hours to 2 hours under conditions of 37° C. and 5% CO2. Following completion of incubation, cell viability (%) was evaluated using a colorimetric method consisting of recovering the cell culture liquid containing the above-mentioned reagent together with measuring absorbance at wavelength of 450 nm based on reduction of tetrazolium salt (value corrected for absorbance at a wavelength of 650 nm: A450 to A650). More specifically, the cell viability (%) of each test cell line was calculated from the measured absorbance as a relative value based on cell viability of 100% for the measured value (measured absorbance) of the comparison test group that underwent incubation for 48 hours as described above in only medium not containing peptide. Antitumor activity was evaluated for Sample 2 in above-mentioned Test Example 1 targeted at multiple types of human-derived cultured tumor cells. […]

The subject of data set [3] is human non-small cell lung cancer cell line (NCI-H2444). The procedure: as §1

Read-outs that look alike come from different tables or passages of the source. Where no end group is shown, it is not given here.

“FIGNLALSDLLAGVAYTANLLLKKRTLRKNDRKKR-NH2 [Sample 2]”: the “Cell Viability (%)” value in data set [1] (12.5 μM) was determined as 25.6%; in data set [1] (25 μM) it was 2.5%; in data set [2] (12.5 μM) it was 25.4%; in data set [2] (25 μM) it was 1.4%; in data set [3] (12.5 μM) it was 11%; in data set [3] (25 μM), 0.6%.
